Laboratory results taken from patent publication EP0800516B1, “FIBRINOGEN RECEPTOR ANTAGONISTS HAVING SUBSTITUTED (b)-AMINO ACID RESIDUES AND PHARMACEUTICAL COMPOSITIONS COMPRISING THE SAME” (Nippon Steel Corporation, priority 1994, dated 1996).

Tested on: Human Platelet Aggregation
Experiment: in vitro human platelet aggregation using PRP (collagen-induced, light transmittance)
Assay type: cell-based
Conditions: aggregation induced with collagen (final concentration: 5 µ g/ml), 37°C
Excerpt: (Measurement of in vitro Human Platelet Aggregation using PRP)
Healthy male volunteers who had not taken any medicines for at least two weeks were selected as subjects. Blood was collected from the forearm vein of each subject on an empty stomach using a #19 needle and a plastic syringe preliminarily charged with 1/10 volume of a 3.8% sodium citrate solution. Immediately after the blood collection, the syringe was shaken gently to mix the blood with the sodium citrate solution. The mixed blood was centrifuged (1100 rpm, 250 g) at room temperature for 15 minutes and the rotation was stopped without applying the brake. Then, the supernatant was collected with a Komagome type pipette to obtain platelet-rich plasma (PRP). The PRP was stored at room temperature. The blood remaining after centrifuging was further centrifuged (3500 rpm, 1500 g) at room temperature for 15 minutes and the rotation was stopped without applying the brake. The supernatant was collected to obtain platelet-poor plasma (PPP). After the preparation of the PRP, the number of platelets was counted and only samples containing more than 2 x 10^8 of platelets per milliliter were subjected to the following experiments.
Platelet aggregation was measured using an 8-channel platelet aggregation measuring instrument (Hematracer, Nikoh Bioscience, Tokyo, Japan) on the basis of the change in light transmittance through the PRP. First, the PPP and PRP (each 200µl) were placed in glass cuvettes and incubated at 37°C . Thereafter, the transmittance was measured. The transmittance of the PPP was determined as 100% and that of the PRP as 0%. Then, 10µl of physiological saline or a sample-containing physiological saline was added to the PRP and incubated at 37°C for one minute. A collagen solution (10 µ l) at a concentration of […] was added (final concentration: 5 µ g/ml) to induce aggregation and thereafter the transmittance was measured over 7 minutes. After aggregation with collagen and ADP was confirmed, only those samples in which the maximum aggregation with collagen was at least 70% were subjected to the experiment.
The sample was dissolved in physiological saline to give a concentration of 2.2 x 10 ^-2 M and a 2-fold dilution series was prepared for use in the experiments. The samples insoluble in the physiological saline were dissolved in physiological saline containing 10% DMSO (dimethyl sulfoxide).
The results were calculated as follows: [formula]
A graph was constructed by plotting the percent aggregation inhibition against the sample concentration and the concentration at which the aggregation was inhibited by 50% (IC50) was calculated from the graph.

| Compound | IC50 |
| --- | --- |
| CCCC(NC(=O)c1ccc(C(=N)N)cc1)C(C)(C)C(=O)N1CCC(CC(=O)O)CC1 (stereo not drawn) [Example 4, N-(N-4-amidinobenzoyl-β-n-propyl-α,α-dimethyl-β-alanyl)-4-piperidineacetic acid] | 89 nM |
| CC(C)C(NC(=O)c1ccc(C(=N)N)cc1)C(C)(C)C(=O)N1CCC(CC(=O)O)CC1 (stereo not drawn) [Example 5, N-(N-4-amidinobenzoyl-β-isopropyl-α,α-dimethyl-β-alanyl)-4-piperidineacetic acid] | 190 nM |
| CC(C)(C(=O)N1CCC(CC(=O)O)CC1)C(C=Cc1ccccc1)NC(=O)c1ccc(C(=N)N)cc1 (stereo not drawn) [Example 14, N-(N-4-amidinobenzoyl-β-styryl-α,α-dimethyl-β-alanyl)-4-piperidineacetic acid] | 460 nM |
| CC(C)C(C(=O)N1CCC(CC(=O)O)CC1)C(/C=C/c1ccccc1)NC(=O)c1ccc(C(=N)N)cc1 (stereo not drawn) [Comparative Example 9, N-(N-4-amidinobenzoyl-β-trans-styryl-α-isopropyl-β-alanyl)-4-piperidineacetic acid, reference compound] | 90000 nM |
| CC(C)(C(=O)N1CCC(CC(=O)O)CC1)C(NC(=O)c1ccc(C(=N)N)cc1)c1cccc(Cl)c1 (stereo not drawn) [Example 9, N-(N-4-amidinobenzoyl-β-m-chlorophenyl-α,α -dimethyl-β-alanyl)-4-piperidineacetic acid] | 180 nM |
| CC(C)(C(=O)N1CCN(CC(=O)O)CC1)C(NC(=O)c1ccc(C(=N)N)cc1)c1ccccc1 (stereo not drawn) [Example 23, N-(N-4-amidinobenzoyl-β-phenyl-α,α-dimethyl-β-alanyl)-4-piperazineacetic acid] | 620 nM |
| CC(C)(C(=O)N1CCC(CC(=O)O)CC1)C(NC(=O)c1ccc(C(=N)N)cc1)c1cccc(O)c1 (stereo not drawn) [Example 28, N-(N-4-amidinobenzoyl-β-m-hydroxyphenyl-α, α-dimethyl-β-alanyl)-4-piperidineacetic acid] | 76 nM |
| CN(C)c1ccc(C(NC(=O)c2ccc(C(=N)N)cc2)C(C)(C)C(=O)N2CCC(CC(=O)O)CC2)cc1 (stereo not drawn) [Example 31, N-(N-4-amidinobenzoyl-β-p-N,N-dimethylaminophenyl-α, α-dimethyl-β-alanyl)-4-piperidineacetic acid] | 470 nM |
| CC(C)(C(=O)N1CCC(CC(=O)O)CC1)C(NC(=O)c1ccc(C(=N)N)cc1)c1ccccc1 (stereo not drawn) [Example 2, N-(N-4-amidinobenzoyl-β-phenyl-α,α-dimethyl-β-alanyl)-4-piperidineacetic acid] | 190 nM |
| CC(C)(C(=O)N1CCC(CC(=O)O)CC1)C(NC(=O)c1ccc(C(=N)N)cc1)C1CC1 (stereo not drawn) [Example 17] | 180 nM |
| C#CC(NC(=O)c1ccc(C(=N)N)cc1)C(C)(C)C(=O)N1CCC(CC(=O)O)CC1 (stereo not drawn) [Example 38, N-(N-4-amidinobenzoyl-β-ethynyl-α,α-dimethyl-β-alanyl)-4-piperidineacetic acid] | 150 nM |
| CC(C)(C(=O)N1CCC(CC(=O)O)CC1)C(NC(=O)c1ccc(C(=N)N)cc1)c1ccc2ccccc2c1 (stereo not drawn) [Example 16, N-(N-4-amidinobenzoyl-β-(2-naphthyl)-α,α -dimethyl-β-alanyl)-4-piperidineacetic acid] | 330 nM |
| CC(NC(=O)c1ccc(C(=N)N)cc1F)C(C)(C)C(=O)N1CCC(CC(=O)O)CC1 (stereo not drawn) [Example 40, N-(N-4-amidino-2-fluorobenzoyl-β-methyl-α, α-dimethyl-β-alanyl)-4-piperidineacetic acid] | 75 nM |
| CCC(NC(=O)c1ccc(C(=N)N)cc1)C(C)(C)C(=O)N1CCC(CC(=O)O)CC1 (stereo not drawn) [Example 3, N-(N-4-Amidinobenzoyl-β-ethyl-α,α-dimethyl-β-alanyl)-4-piperidineacetic acid] | 84 nM |
| CCCCC(NC(=O)c1ccc(C(=N)N)cc1)C1(C(=O)N2CCC(CC(=O)O)CC2)CCCCC1 (stereo not drawn) [Example 30, N-(((N-4-amidinobenzoyl)-1-amino)-1-pentyl-1-cyclohexane-carbonyl)-4-piperidineacetic acid] | 160 nM |
| CC(C)(C(=O)N1CCC(CC(=O)O)CC1)C(NC(=O)c1ccc(C(=N)N)cc1)c1ccoc1 (stereo not drawn) [Example 13, N-(N-4-amidinobenzoyl-β-(3-furyl)-α,α-dimethyl-β-alanyl)-4-piperidineacetic acid] | 270 nM |
| CN(C(=O)c1ccc(C(=N)N)cc1)C(c1ccccc1)C(C)(C)C(=O)N1CCC(CC(=O)O)CC1 (stereo not drawn) [Example 21, N-(N-4-amidinobenzoyl-N-methyl-β-phenyl-α, α-dimethyl-β-alanyl)-4-piperidineacetic acid] | 330 nM |

| Compound | IC50 |
| --- | --- |
| CCC(CNC(=O)c1ccc(C(=N)N)cc1)C(=O)N1CCC(CC(=O)O)CC1 (stereo not drawn) [Comparative Example 4, N-(N-4-amidinobenzoyl-α-ethyl-β -alanyl)-4-piperidineacetic acid, reference compound] | 890 nM |
| N=C(N)c1ccc(C(=O)NC(CC(=O)N2CCC(CC(=O)O)CC2)c2ccccc2)cc1 (stereo not drawn) [Comparative Example 3, N-(N-4-amidinobenzoyl-β-phenyl-β -alanyl)-4-piperidineacetic acid, reference compound] | 5200 nM |
| CCCCNC(=N)c1ccc(C(=O)NC(c2cccc(Cl)c2)C(C)(C)C(=O)N2CCC(CC(=O)O)CC2)cc1 (stereo not drawn) [Example 18] | 1000 nM |
| CCCCC(NC(=O)c1ccc(C(=N)N)cc1F)C(C)(C)C(=O)N1CCC(CC(=O)O)CC1 (stereo not drawn) [Example 33, N-(N-4-amidino-2-fluorobenzoyl-β-n-butyl-α ,α-dimethyl-β-alanyl)-4-piperidineacetic acid] | 73 nM |
| CCC(C(=O)N1CCC(CC(=O)O)CC1)C(/C=C/c1ccccc1)NC(=O)c1ccc(C(=N)N)cc1 (stereo not drawn) [Comparative Example 6, N-(N-4-amidinobenzoyl-β-trans-styryl-α-ethyl-β-alanyl)-4-piperidineacetic acid, reference compound] | 85000 nM |
| CC(C)(C(=O)N1CCC(CC(=O)O)CC1)C(CC1CCCCC1)NC(=O)c1ccc(C(=N)N)cc1 (stereo not drawn) [Example 12, N-(N-4-amidinobenzoyl-β-cyclohexylmethyl-α, α-dimethyl-β-alanyl)-4-piperidineacetic acid] | 170 nM |
| CCCCC(NC(=O)c1ccc(C(=N)N)cc1)C(C)(C)C(=O)N1CCC(CC(=O)O)CC1 (stereo not drawn) [Example 6, N-(N-4-amidinobenzoyl-β-normal-butyl-α,α-dimethyl-β-alanyl)-4-piperidineacetic acid] | 84 nM |
| CC(C)(C(=O)N1CCC(CC(=O)O)CC1)C(NC(=O)c1ccc(C(=N)N)cc1Cl)c1ccccc1 (stereo not drawn) [Example 34, N-(N-4-amidino-2-chlorobenzoyl-β-phenyl-α, α-dimethyl-β-alanyl)-4-piperidineacetic acid] | 360 nM |
| CC(C)(C(=O)N1CCC(CC(=O)O)CC1)C(CCc1ccccc1)NC(=O)c1ccc(C(=N)N)cc1 (stereo not drawn) [Example 11, N-(N-4-amidinobenzoyl-β-phenethyl-α,α-dimethyl-β-alanyl)-4-piperidineacetic acid] | 160 nM |
| CC(CC(=O)N1CCC(CC(=O)O)CC1)NC(=O)c1ccc(C(=N)N)cc1 (stereo not drawn) [Comparative Example 2, N-(N-4-amidinobenzoyl-β-methyl-β -alanyl)-4-piperidineacetic acid, reference compound] | 50000 nM |
| CC(C)(C(=O)N1CCC(CC(=O)O)CC1)C(CCc1cccc(O)c1)NC(=O)c1ccc(C(=N)N)cc1 (stereo not drawn) [Example 37, N-(N-4-amidinobenzoyl-β-m-hydroxyphenethyl-α, α-dimethyl-β-alanyl)-4-piperidineacetic acid] | 190 nM |
| CC(C)(C(=O)N1CCC(CC(=O)O)CC1)C(NC(=O)c1ccc(C(=N)N)cc1)c1ccc(O)cc1 (stereo not drawn) [Example 27, N-(N-4-amidinobenzoyl-β-p-hydroxyphenyl-α, α-dimethyl-β-alanyl)-4-piperidineacetic acid] | 200 nM |
| CC(C)C(C(=O)N1CCC(CC(=O)O)CC1)C(NC(=O)c1ccc(C(=N)N)cc1)c1ccccc1 (stereo not drawn) [Comparative Example 8, N-(N-4-amidinobenzoyl-β-phenyl-α -isopropyl-β-alanyl)-4-piperidineacetic acid, reference compound] | 82000 nM |
| CC(C)(CNC(=O)c1ccc(C(=N)N)cc1)C(=O)N1CCC(CC(=O)O)CC1 [Example 1, N-(N-4-amidinobenzoyl-α,α-dimethyl-β-alanyl)-4-piperidineacetic acid] | 570 nM |
| CC=CC(NC(=O)c1ccc(C(=N)N)cc1)C(C)(C)C(=O)N1CCC(CC(=O)O)CC1 (stereo not drawn) [Example 29, N-(N-4-amidinobenzoyl-β-1-propenyl-α,α-dimethyl-β-alanyl)-4-piperidineacetic acid] | 100 nM |
| COc1ccccc1C(NC(=O)c1ccc(C(=N)N)cc1)C(C)(C)C(=O)N1CCC(CC(=O)O)CC1 (stereo not drawn) [Example 26, N-(N-4-amidinobenzoyl-β-o-methoxyphenyl-α, α-dimethyl-β-alanyl)-4-piperidineacetic acid] | 340 nM |
